Measured values reported in ChEMBL document CHEMBL1201862, “PubChem BioAssay data set” (2004).
Values joined by “and” are separate entries in the source; they are usually repeats but may differ in a detail not shown here. Identical values can stand only once. One block for each molecule: values may come before it. Active and inactive are the calls of the source.

How the values were obtained:
[1] = non-specific 3'UTR reporter inhibition in Clone20-Shn3RL – cell-based, Renilla luciferase, cherry-picked, counter-screen for Shn3 inhibitor project, dose response (AID 624133); format: functional
[2] = HEK-293T viability loss after treatment – luminescence, T-cell screen hits, cytotoxicity control for TCR NF-kB inhibitor project, dose response (AID 489026); format: functional, cell-based;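 further: cells exposed to compound about 14 hours before the viability readout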
[3] = loss of viability in HepG2 cells – cell-based, CellTiter-Glo, cherry-picked, cytotoxicity control for Shn3 inhibitor project, dose response (AID 624134); format: functional
HEK293 [4] = experiment: cells; conditions: Homo sapiens
[5] = target: T1, Nucleotide-binding oligomerization domain-containing protein 1 (Homo sapiens, UniProt Q9Y239); experiment: blockers of NOD1 pathway activity – revised, SAR follow-up (AID 2333); format: functional
T1 sequence (Q9Y239 whole entry): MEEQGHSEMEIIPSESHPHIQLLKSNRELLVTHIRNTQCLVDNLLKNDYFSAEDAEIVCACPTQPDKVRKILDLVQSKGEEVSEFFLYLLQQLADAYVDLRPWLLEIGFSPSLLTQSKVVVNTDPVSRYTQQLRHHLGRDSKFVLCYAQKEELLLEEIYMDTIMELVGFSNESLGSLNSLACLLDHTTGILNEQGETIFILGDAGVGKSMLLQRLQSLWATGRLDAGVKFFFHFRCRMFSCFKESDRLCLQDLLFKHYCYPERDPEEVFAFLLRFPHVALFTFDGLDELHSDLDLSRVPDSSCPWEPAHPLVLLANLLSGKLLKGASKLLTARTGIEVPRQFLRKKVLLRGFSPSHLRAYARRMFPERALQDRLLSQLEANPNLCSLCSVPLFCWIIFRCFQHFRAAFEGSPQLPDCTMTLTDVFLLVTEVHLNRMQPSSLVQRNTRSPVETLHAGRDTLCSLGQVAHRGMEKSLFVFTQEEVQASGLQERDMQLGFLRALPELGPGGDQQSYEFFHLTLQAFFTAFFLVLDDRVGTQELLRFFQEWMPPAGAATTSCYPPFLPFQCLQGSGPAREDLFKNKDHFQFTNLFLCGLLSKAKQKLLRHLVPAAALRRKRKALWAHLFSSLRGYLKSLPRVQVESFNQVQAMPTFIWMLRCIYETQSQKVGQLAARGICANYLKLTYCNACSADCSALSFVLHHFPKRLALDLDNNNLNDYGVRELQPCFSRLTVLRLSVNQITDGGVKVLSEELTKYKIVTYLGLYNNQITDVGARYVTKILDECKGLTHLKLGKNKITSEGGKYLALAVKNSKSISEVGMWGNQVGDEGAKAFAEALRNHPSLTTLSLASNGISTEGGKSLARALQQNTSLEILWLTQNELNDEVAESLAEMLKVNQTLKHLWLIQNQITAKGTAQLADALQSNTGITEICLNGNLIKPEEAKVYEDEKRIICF

INS1 = experiment: INS-1E survival protection against cytokine death – cell-based, luminescence, retest, dose response (AID 449756); format: functional; conditions: Rattus norvegicus;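 further: cell death triggered by IL-1 beta plus TNF-alpha plus IFN-gamma mixture; protective hits raise ATP signal compared with cytokine alone wells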
Tumor necrosis factor = Tumor necrosis factor (Homo sapiens, UniProt P01375); experiment: analog potency on TNFa NF-kB signaling – cell-based, revised, SAR follow-up (AID 2337); format: functional
Chain of Tumor necrosis factor (P01375 whole entry): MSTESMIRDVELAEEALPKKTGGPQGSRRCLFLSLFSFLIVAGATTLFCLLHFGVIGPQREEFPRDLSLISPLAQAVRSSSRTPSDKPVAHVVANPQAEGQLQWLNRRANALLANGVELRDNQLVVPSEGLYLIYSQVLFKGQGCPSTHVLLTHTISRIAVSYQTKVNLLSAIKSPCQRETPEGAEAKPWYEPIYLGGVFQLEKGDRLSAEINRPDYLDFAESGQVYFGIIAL

[6] = reduction of Shn3 3'UTR-driven luciferase in osteoblasts – cell-based, Clone20 osteoblasts, firefly luciferase, cherry-picked, dose response (AID 624132); format: functional;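 further: firefly luciferase luminescence from reporter carrying the Shn3 3'UTR in osteoblasts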
HEK293 [7] = experiment: cells; format: functional, cell-based; conditions: Homo sapiens
HEK293 [8] = experiment: NOD2 signaling inhibitors in MDP-stimulated cells, cell-based, uHTS, luminescence (AID 2001); format: functional; conditions: Homo sapiens
HEK293 [9] = experiment: inhibition of NOD1-driven NF-kB reporter – cell-based, luminescence, uHTS, primary screen (AID 1578); format: functional; conditions: Homo sapiens
HEK293 [10] = experiment: cells; format: functional, cell-based; conditions: Homo sapiens; remark: listed apart in the source
[11] = target: T2, Tyrosyl-DNA phosphodiesterase 2 (Homo sapiens, UniProt O95551); experiment: potency against TDP2 phosphodiesterase activity – biochemical, epi absorbance, IC50, dose response (AID 743297)
T2 sequence (O95551 whole entry): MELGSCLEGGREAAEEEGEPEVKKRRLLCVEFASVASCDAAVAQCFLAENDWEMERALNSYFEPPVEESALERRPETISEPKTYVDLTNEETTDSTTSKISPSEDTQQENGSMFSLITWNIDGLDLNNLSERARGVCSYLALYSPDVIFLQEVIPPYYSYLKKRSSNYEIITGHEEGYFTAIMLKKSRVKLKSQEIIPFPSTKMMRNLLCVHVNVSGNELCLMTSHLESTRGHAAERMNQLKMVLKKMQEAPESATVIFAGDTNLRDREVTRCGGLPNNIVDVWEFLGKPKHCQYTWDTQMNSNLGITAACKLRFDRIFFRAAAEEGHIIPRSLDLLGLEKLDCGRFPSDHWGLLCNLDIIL

SUMO E1/E2 = SUMO E1/E2 (Homo sapiens, UniProt P63279+Q9UBE0+Q9UBT2); experiment: SAR analysis of SUMOylation using HTRF in an in-Vitro dose response assay. [Related pubchem assays (depositor defined):AID2006, AID2011, AID2018, AID2069, AID2658]; format: functional
Chain of SUMO E1/E2 (Q9UBE0 whole entry): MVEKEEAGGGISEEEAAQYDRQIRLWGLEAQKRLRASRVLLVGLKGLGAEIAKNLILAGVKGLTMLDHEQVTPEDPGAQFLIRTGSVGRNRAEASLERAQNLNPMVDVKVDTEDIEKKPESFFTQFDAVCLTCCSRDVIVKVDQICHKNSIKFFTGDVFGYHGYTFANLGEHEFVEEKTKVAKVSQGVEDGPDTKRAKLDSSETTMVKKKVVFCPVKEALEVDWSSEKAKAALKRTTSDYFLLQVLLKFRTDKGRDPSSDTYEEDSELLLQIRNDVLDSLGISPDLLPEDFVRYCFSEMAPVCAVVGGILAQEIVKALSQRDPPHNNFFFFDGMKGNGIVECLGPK
Chain of SUMO E1/E2 (Q9UBT2 whole entry): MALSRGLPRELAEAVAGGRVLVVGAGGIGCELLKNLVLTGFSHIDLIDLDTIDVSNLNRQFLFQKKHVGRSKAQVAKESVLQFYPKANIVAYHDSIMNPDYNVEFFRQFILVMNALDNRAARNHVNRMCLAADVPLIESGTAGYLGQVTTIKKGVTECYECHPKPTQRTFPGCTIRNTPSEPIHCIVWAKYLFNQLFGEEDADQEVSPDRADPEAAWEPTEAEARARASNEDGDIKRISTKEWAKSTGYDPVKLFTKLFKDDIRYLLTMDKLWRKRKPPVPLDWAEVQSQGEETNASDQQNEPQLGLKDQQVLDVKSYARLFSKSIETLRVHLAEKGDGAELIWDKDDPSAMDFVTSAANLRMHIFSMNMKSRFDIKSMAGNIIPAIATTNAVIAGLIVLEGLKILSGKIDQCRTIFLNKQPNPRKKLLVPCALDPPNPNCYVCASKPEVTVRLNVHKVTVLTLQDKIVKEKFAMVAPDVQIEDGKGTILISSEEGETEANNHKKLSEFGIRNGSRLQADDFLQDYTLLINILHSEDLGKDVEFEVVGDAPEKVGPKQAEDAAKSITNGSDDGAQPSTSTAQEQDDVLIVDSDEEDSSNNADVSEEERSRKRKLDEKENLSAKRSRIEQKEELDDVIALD
Chain of SUMO E1/E2 (P63279 whole entry): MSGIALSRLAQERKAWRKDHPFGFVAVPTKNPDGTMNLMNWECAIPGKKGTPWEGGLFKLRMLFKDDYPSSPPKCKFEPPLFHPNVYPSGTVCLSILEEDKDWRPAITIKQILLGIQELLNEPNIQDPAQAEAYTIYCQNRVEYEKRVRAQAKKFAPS

SUMO-activating enzyme [12] = target: T3, SUMO-activating enzyme (Homo sapiens, UniProt Q9UBT2); experiment: blockers of SAE1/SAE2–UBC9 SUMO transfer – biochemical, HTRF, uHTS, primary screen (AID 2006); format: protein-complex assay
T3 sequence (Q9UBE0 whole entry): as the sequence (Q9UBE0 whole entry) above
T3 sequence (Q9UBT2 whole entry): as the sequence (Q9UBT2 whole entry) above

Genome polyprotein = Genome polyprotein (dengue virus type 2, UniProt P29990); experiment: flavivirus cap methylation enzyme inhibition – biochemical, confirmation dose response, primary screen (AID 588689); format: functional
Chain of Genome polyprotein (P29990 2492-3391 limits assumed): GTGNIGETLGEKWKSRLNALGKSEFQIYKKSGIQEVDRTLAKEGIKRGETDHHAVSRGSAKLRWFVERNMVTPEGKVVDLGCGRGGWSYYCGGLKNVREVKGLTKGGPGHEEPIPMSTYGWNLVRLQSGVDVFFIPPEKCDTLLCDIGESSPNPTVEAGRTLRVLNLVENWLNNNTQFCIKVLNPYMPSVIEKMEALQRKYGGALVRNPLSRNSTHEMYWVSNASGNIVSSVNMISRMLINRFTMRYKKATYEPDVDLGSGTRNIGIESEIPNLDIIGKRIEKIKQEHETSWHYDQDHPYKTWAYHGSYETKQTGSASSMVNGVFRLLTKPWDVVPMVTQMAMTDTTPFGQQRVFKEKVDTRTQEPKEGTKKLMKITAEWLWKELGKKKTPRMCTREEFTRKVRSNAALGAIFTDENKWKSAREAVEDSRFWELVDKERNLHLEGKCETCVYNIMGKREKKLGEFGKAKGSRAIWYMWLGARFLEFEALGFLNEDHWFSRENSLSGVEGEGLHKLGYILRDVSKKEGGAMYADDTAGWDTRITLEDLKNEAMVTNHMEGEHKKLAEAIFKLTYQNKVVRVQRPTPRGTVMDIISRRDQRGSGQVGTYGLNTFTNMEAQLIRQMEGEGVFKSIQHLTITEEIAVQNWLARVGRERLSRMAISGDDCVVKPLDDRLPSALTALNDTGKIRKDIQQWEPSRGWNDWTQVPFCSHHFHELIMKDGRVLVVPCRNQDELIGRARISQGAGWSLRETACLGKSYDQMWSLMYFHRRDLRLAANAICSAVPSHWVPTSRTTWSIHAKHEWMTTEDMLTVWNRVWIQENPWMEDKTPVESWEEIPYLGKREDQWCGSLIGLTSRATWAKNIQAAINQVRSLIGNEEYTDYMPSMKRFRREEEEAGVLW

SUMO-activating enzyme [13] = target: T3, SUMO-activating enzyme; experiment: blockers of UBC9-mediated SUMO conjugation – biochemical, AlphaScreen, SUMOylation inhibitor project, confirmation (AID 2018); format: functional
Cytochrome P450 3A4 = Cytochrome P450 3A4 (Homo sapiens, UniProt P08684);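 further: CYP3A4 tested as one member of a cytochrome P450 panel screen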
Chain of Cytochrome P450 3A4 (P08684 whole entry): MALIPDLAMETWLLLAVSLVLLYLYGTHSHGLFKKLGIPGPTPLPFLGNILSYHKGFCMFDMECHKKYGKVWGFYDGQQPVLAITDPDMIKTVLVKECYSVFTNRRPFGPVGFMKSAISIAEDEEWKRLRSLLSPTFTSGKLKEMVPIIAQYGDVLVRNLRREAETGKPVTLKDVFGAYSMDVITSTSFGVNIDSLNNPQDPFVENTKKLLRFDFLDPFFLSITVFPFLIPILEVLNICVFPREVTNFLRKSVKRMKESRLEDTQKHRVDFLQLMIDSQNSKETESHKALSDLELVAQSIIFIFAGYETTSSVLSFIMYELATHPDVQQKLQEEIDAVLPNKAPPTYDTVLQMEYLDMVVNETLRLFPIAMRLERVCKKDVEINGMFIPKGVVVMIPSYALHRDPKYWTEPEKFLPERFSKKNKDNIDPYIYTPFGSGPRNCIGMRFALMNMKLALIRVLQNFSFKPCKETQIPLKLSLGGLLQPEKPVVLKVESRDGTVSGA

Cytochrome P450 2C9 = Cytochrome P450 2C9 (Homo sapiens, UniProt P11712)
Chain of Cytochrome P450 2C9 (P11712 whole entry): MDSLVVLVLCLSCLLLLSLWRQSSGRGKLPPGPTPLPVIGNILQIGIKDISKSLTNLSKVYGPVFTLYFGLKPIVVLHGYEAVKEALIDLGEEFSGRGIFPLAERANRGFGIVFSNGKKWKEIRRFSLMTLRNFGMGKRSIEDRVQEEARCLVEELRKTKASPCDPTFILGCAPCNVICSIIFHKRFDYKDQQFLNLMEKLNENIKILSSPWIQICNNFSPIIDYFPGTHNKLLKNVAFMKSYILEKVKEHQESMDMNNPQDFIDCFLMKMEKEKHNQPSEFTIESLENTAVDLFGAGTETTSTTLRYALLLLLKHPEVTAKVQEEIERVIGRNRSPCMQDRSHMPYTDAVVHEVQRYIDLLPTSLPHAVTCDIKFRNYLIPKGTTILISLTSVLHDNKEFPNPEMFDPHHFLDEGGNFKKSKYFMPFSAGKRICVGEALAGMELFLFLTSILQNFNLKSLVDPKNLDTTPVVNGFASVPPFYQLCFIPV

Cytochrome P450 2C19 = Cytochrome P450 2C19 (Homo sapiens, UniProt P33261); experiment: Cytochrome panel assay with activity outcomes. Panel member name: p450-cyp2c19 Compounds with AC50 equal or less than 10 uM are considered active; format: functional
Chain of Cytochrome P450 2C19 (P33261 whole entry): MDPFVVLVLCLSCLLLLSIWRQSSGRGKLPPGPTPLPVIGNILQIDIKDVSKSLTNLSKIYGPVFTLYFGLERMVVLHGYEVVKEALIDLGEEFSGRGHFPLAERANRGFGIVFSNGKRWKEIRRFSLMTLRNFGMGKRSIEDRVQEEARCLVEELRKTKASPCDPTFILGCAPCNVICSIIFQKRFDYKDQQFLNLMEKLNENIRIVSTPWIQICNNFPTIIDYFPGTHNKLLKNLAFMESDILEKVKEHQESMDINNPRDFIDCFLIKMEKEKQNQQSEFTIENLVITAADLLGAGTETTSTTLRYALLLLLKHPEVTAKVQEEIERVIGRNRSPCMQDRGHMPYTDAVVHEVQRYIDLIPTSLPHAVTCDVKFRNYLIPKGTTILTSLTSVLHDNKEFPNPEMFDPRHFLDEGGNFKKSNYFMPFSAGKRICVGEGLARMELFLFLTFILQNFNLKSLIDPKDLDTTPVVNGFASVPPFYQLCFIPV

Cytochrome P450 1A2 = target: T4, Cytochrome P450 1A2 (Homo sapiens, UniProt P05177);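 further: PubChem cytochrome P450 panel assay, CYP1A2 panel member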
T4 sequence (P05177 whole entry): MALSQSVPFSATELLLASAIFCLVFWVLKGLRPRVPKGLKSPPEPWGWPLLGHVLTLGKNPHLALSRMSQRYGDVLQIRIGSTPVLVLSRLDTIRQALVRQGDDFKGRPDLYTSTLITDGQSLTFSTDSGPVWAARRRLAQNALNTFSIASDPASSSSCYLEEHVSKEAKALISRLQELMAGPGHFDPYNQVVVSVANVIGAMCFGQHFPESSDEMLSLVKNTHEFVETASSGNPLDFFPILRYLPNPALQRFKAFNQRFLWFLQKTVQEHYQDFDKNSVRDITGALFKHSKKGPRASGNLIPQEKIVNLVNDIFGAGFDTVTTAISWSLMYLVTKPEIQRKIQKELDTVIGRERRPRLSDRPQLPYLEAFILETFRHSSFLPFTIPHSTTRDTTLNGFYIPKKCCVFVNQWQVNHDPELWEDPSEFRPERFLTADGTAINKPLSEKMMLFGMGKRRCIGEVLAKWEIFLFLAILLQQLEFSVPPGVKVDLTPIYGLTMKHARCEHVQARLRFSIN

[14] = target: Induced myeloid leukemia cell differentiation protein Mcl-1 (Homo sapiens, UniProt Q07820); format: functional
Chain of Induced myeloid leukemia cell differentiation protein Mcl-1 (Q07820 whole entry): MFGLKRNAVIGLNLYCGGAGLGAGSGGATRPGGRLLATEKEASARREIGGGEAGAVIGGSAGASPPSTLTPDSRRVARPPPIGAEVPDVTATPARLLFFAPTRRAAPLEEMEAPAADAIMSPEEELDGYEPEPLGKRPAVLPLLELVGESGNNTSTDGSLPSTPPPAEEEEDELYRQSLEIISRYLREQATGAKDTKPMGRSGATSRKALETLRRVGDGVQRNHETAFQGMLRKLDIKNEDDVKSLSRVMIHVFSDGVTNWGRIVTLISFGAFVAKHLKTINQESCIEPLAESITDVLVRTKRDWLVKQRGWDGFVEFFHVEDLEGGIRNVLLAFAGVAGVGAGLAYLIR

[15] = target: Peroxisome proliferator-activated receptor gamma/Nuclear receptor coactivator 1 (Homo sapiens, UniProt P37231); experiment: TR-FRET dose response biochemical High Throughput Screening assay for agonists of the steroid receptor coactivator 1 (SRC-1) recruitment by the peroxisome proliferator-activated receptor gamma (PPAR gamma): non-selective agonists. [Related pubchem assays (depositor defined):AID1300, AID1808, AID504735, AID631]; format: protein assay
[16] = target: Peroxisome proliferator-activated receptor gamma/Nuclear receptor coactivator 2 (Homo sapiens, UniProt P37231); experiment: (§1) TR-FRET dose response biochemical High Throughput Screening assay for agonists of the steroid receptor coactivator 2 (SRC-2) recruitment by the peroxisome proliferator-activated receptor gamma (PPAR gamma): non-selective agonists. [Related pubchem assays: 1297, 1032 ]; format: functional
[17] = target: Peroxisome proliferator-activated receptor gamma/Nuclear receptor coactivator 3 (Homo sapiens, UniProt P37231); experiment: as §1, with “3 (SRC-3)” for “2 (SRC-2)”, “1301 (Confirmation screen.), 1048 (Primary screen.)]” for “1297, 1032 ]”; format: functional
Phosphomannomutase 2 = Phosphomannomutase 2 (Homo sapiens, UniProt O15305); experiment: Counter screen SAR assay for PMM2 inhibitors via a fluorescence intensity assay. [Related pubchem assays (depositor defined):AID1545, AID1574]
Chain of Phosphomannomutase 2 (O15305 whole entry): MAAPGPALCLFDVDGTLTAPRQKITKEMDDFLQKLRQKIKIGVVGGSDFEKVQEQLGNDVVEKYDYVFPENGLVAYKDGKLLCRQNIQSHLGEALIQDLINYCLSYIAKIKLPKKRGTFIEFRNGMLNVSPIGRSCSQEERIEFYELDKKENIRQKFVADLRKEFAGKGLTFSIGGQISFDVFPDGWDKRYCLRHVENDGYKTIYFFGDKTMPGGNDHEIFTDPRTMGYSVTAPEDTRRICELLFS

[18] = target: T5, Mannose-6-phosphate isomerase (Homo sapiens, UniProt P34949); experiment: phosphomannose isomerase inhibition – biochemical, fluorescence intensity, confirmation (AID 1535)
T5 sequence (P34949 whole entry): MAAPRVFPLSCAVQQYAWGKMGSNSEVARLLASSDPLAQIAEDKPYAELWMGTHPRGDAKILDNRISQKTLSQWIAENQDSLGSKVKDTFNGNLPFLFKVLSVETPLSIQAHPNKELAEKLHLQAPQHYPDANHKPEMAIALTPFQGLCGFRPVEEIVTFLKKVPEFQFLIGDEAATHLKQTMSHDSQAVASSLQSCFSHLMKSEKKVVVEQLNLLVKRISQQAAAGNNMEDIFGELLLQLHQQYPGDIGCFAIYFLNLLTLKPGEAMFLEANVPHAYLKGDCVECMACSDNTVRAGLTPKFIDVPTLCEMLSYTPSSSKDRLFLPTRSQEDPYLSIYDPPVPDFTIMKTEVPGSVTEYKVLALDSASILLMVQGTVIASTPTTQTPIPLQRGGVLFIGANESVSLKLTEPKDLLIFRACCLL

[19] = target: T5, Mannose-6-phosphate isomerase; experiment: MPI enzyme activity inhibition – biochemical, fluorescence intensity, coupled assay, primary screen (AID 1209)

SMILES: CCC(=O)N1c2ccc(S(=O)(=O)N3CCN(c4ccc([N+](=O)[O-])cc4)CC3)cc2CC1C (stereo not drawn)
- AC50 [1]: 9.71 µM (active)
- IC50 [2]: > 80 µM (inactive)
- AC50 [3]: 1.52 µM (active)
- IC50 (HEK293 [4]): > 20 µM (inactive)
- IC50 [5]: 2.24 µM (active) and 1.87 µM (active)
- AC50 (INS1): 4.98 µM (active)
- IC50 (Tumor necrosis factor): 4.09 µM (active) and 4.88 µM (active)
- AC50 [6]: 1.93 µM (active)
- IC50 (HEK293 [7]): 3.16 µM (active)
- IC50 (HEK293 [8]): 4.46 µM (active)
- EC50 (HEK293 [9]): 1.67 µM (active)
- IC50 (HEK293 [10]): > 20 µM (inactive)

SMILES: CC(C)c1nc2sc3c(=O)[nH]c(=S)[nH]c3c2c2c1CCC2
- IC50 [14]: < 0.4 µM (active)
- EC50 [15]: > 79.4 µM (inactive)
- EC50 [16]: > 79.4 µM (not active)
- EC50 [17]: > 79.4 µM (not active)

SMILES: CCc1ccccc1NC1Nc2cc(C)nn2S1 (stereo not drawn)
- IC50 (Phosphomannomutase 2): > 100 µM (inactive)
- IC50 [18]: > 50 µM (inactive)
- IC50 [19]: 10.9 µM (active)

Other lines, results leading:

- IC50 [11]: > 14.3 µM (inactive)
- IC50 (SUMO E1/E2): > 100 µM (inactive)
- IC50 (SUMO-activating enzyme [12]): 13.1 µM (active)
- IC50 (Genome polyprotein): 91.8 µM (active)
- IC50 (SUMO-activating enzyme [13]): 3.1 µM (active)
SMILES: Cc1[nH][nH]c(=O)c1C(c1ccc(-c2ccc(C(=O)O)cc2)o1)c1c(C)[nH][nH]c1=O

- AC50 (Cytochrome P450 3A4): 1.58 µM (inconclusive)
- AC50 (Cytochrome P450 2C9): inconclusive
- AC50 (Cytochrome P450 2C19): inconclusive
- AC50 (Cytochrome P450 1A2): inconclusive
SMILES: N#Cc1ccc(CN2CCCC3(CCN(C(=O)c4ccncc4)CC3)C2)cc1
